Where two headings read alike, the source gives them in different places.
Key:
1A9 cells = assay: SRB cytotoxicity assay, parental paclitaxel-sensitive 1A9 cells; format: cell-based, human; settings: mean +/- SD, number of experiments in brackets, read-out: IC50 1A9 ("non-resistant")
Source text: (§1) The tubulin mutated, paclitaxel-resistant human ovarian carcinoma cell line 1A9-PTX10 and its parental paclitaxel-sensitive cell line 1A9 were derived from the A2780 human ovarian carcinoma cell line (J Biol Chem (1997) 272, 17118-17124).

1A9-PTX10 cells = assay: SRB cytotoxicity assay, tubulin mutated paclitaxel-resistant 1A9-PTX10 cells; format: cell-based, human; settings: for IC50: 48 hours exposure, SRB, mean +/- SD, number of experiments in brackets; for RR (relative resistance) 1A9-PTX10 vs 1A9: ratio of the means of the resistant cells compared to the sensitive cells
Source text: as §1

[1] = test system: NCI-Adr resistant subline; assay: SRB cytotoxicity assay, P-glycoprotein expressing NCI-Adr resistant subline, with and without verapamil; format: cell-based; settings: for IC50: 48 hours, SRB; for RR (relative resistance) NCI-Adr resistant −verapamil vs +verapamil: ratio of the means of the resistant cells compared to the sensitive cells
Method: (§5) Briefly, cells were plated in 96 well dishes 24 hours prior to compound addition. Where noted, they were exposed to verapamil for 4 hours prior to compound addition and then throughout the treatment period (48 hours). The assay was terminated with the addition of cold TCA to a final concentration of 10% and the plates were incubated for one hour at 4° C. The plates were then washed 5 times with water and 100 μl of a Sulforhodamine B solution (4%) was added to each well. The plate was then incubated for 10 minutes at room temperature before removal of unbound dye by washing with 1% acetic acid. The bound dye was solubilized with 10 mM Trizma base and the absorbance read at OD570.

CCRF/CEM cells = assay: Calcein AM viability assay (flow cytometry), parental CEM cells; format: cell-based, human; settings: 48 hours, read-out: IC50 CEM ("non-resistant")
Method: (§2) The Camptothecin resistant CEM/C2 cells were derived from the T lymphoblastoid leukemia cell line CCRF/CEM by selection in the presence of Camptohecin in vitro (Kapoor et al., 1995. Oncology Research 7; 83-95, ATCC
(§3) The cells were plated in T-25 flasks in the presence or absence of compound and incubated for 48 hours before termination of the assay. Cells were washed twice with PBS and incubated in 200 μl of a solution of Calcein AM (0.3 nM)/PBS for 90 minutes at 37° C. The cells were washed once with PBS before determining fluorescent units on a FACS can flow cytometer.

CEM/C2 cells = assay: Calcein AM viability assay (flow cytometry), camptothecin resistant CEM/C2 cells; format: cell-based, human; settings: for IC50: 48 hours, Calcein AM; for RR (relative resistance) CEM/C2 vs CEM: atypical multi-drug resistance and mutant topoisomerase I
Method: as §2, §3

cells in S-phase = settings: in vitro; cited from earlier work
MCF-7 cells = assay: SRB cytotoxicity assay, parental MCF-7 cells; format: cell-based; settings: read-out: IC50 MCF7 ("non-resistant")
Source text: (§4) The etoposide-resistant breast cancer cell line MCF-7/VP was used (Schneider et al, Cancer Res, 54, 152). […] ABCC1; Schneider et al, Cancer Res, 54, 152; Perez-Soler et al, Int J Cancer, 71,35). The parental cell line, MCF-7, was used as a control.

MCF-7/VP cells = assay: SRB cytotoxicity assay, etoposide-resistant MCF-7/VP cells (MRP1 up-regulated); format: cell-based; settings: for IC50: 48 hours, SRB; for RR (relative resistance) MCF7/VP vs MCF7: mean +/- SD
Source text: as §4

A129 cells = assay: SRB cytotoxicity assay, parental A129 cells; format: cell-based, human; settings: 48 hours, read-out: IC50 A129 ("non-resistant")
Method: (§6) The P-glycoprotein expressing NCI-Adr resistant subline (Vickers et al., 1989. Mol Endocrinology 3 (1):157-164) was used. […] Briefly, cells were plated in 96 well dishes 24 hours prior to compound addition. Where noted, they were exposed to verapamil for 4 hours prior to compound addition and then throughout the treatment period (48 hours). The assay was terminated with the addition of cold TCA to a final concentration of 10% and the plates were incubated for one hour at 4° C. The plates were then washed 5 times with water and 100 μl of a Sulforhodamine B solution (4%) was added to each well. The plate was then incubated for 10 minutes at room temperature before removal of unbound dye by washing with 1% acetic acid. The bound dye was solubilized with 10 mM Trizma base and the absorbance read at OD570.
(§7) The parental non-mutated cell line A 129 was used as control.
(§8) Cytotoxicty was measured using the SRB assay according to Shekan et al. as described above in Example 1A.

A129 cp80 cells = assay: SRB cytotoxicity assay, cisplatin-resistant A129 cp80 cells; format: cell-based, human; settings: for IC50: 48 hours, SRB
Method: as §6, §7, §8

HT29 cells = assay: SRB cytotoxicity assay, parental HT29 cells; format: cell-based; settings: read-out: IC50 HT-29 ("non-resistant")
Method: as §5
(§9) The mitoxantrone-resistant colon carcinoma cell line HT29/MIT was used (Perego et al, Cancer Res, 61, 6034). […] The parental cell line, HT29, was used as a control.

HT29/MIT cells = assay: SRB cytotoxicity assay, mitoxantrone-resistant HT29/MIT cells (BCRP up-regulated); settings: for RR (relative resistance) HT-29/MIT vs HT-29: mean +/- SD; for IC50: read-out: IC50 HT-29/MIT ("resistant")
Method: as §5, §9

P-gp = P-gp (Homo sapiens, UniProt P08183); settings: more potent than cyclosporine; cited from earlier work
[2] = Homo sapiens, 1A9, 48 hours exposure
[3] = Homo sapiens, NCI/ADR-RES, no verapamil, read-out: IC50 NCI-Adr resistant −verapamil ("resistant")
[4] = Homo sapiens, NCI/ADR-RES, verapamil 12.5 μg/ml, read-out: IC50 NCI-Adr resistant +verapamil ("non-resistant")
[5] = no verapamil, read-out: IC50 NCI-Adr resistant −verapamil ("resistant")
[6] = verapamil 12.5 μg/ml, read-out: IC50 NCI-Adr resistant +verapamil ("non-resistant")
[7] = read-out: IC50 MCF7/VP ("resistant")

P-gp, sequence (P08183 whole entry): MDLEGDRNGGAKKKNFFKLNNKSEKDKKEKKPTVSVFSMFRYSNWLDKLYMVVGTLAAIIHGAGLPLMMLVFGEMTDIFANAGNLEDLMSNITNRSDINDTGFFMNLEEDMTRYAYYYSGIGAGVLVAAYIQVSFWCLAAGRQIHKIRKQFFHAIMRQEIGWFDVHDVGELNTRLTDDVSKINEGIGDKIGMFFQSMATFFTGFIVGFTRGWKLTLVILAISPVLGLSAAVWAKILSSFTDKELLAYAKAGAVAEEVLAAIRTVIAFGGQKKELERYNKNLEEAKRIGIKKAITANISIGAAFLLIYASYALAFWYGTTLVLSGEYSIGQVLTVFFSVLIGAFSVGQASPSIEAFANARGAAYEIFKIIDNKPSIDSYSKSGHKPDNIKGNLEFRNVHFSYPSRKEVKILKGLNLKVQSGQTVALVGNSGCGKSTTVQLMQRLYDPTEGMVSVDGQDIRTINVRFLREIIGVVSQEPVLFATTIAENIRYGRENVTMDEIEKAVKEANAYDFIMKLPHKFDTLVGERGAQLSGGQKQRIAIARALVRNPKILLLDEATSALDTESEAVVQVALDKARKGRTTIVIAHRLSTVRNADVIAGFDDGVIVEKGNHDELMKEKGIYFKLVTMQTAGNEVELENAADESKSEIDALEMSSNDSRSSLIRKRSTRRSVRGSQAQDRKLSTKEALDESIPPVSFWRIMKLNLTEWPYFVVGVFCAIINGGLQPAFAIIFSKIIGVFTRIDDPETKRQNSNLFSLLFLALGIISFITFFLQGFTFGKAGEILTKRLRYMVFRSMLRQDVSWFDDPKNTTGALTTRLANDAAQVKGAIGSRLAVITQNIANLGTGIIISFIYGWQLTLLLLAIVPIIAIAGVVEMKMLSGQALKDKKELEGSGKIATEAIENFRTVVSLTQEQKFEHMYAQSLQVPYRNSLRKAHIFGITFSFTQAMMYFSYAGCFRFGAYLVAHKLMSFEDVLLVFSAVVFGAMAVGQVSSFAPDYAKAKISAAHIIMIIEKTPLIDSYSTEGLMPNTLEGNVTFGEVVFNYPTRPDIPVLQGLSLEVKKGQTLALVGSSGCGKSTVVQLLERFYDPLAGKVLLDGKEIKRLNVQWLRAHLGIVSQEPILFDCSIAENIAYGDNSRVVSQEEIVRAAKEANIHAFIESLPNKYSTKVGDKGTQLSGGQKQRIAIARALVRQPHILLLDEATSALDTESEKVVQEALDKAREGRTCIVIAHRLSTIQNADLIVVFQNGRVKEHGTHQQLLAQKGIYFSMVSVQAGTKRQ

**Q.** For `CC(=O)O[C@@]12CO[C@@H]1C[C@H](O)[C@@]1(C)C(=O)[C@H](O)C3=C(C)[C@@H](OC(=O)[C@H](O)[C@@H](NC(=O)OC(C)(C)C)c4ccccc4)C[C@@](O)([C@@H](OC(=O)c4ccccc4)[C@H]21)C3(C)C` [Taxotere, N-debenzoyl-N-tert-butoxycarbonyl-10-deacetyl paclitaxel], which IC50 (1A9 cells; [2]) is on record?
**A.** Its IC50 is 2 nM.

**Q.** And the IC50 (1A9-PTX10 cells; Homo sapiens, 1A9/ptx-10)?
**A.** Its IC50 is 212 nM.

**Q.** What about the IC50 [1, 3] of the same molecule?
**A.** Its IC50 is 620 nM.

**Q.** What about the IC50 [1, 4] of the same molecule?
**A.** Its IC50 is 19 nM.

**Q.** With `CC[C@@]1(O)C(=O)OCc2c1cc1n(c2=O)Cc2cc3ccccc3nc2-1` [Camptothecin, camptothecin] as the molecule, how does the IC50 (CCRF/CEM cells; Homo sapiens, CCRF-CEM) read?
**A.** Its IC50 is 5 nM.

**Q.** And the IC50 (CEM/C2 cells; Homo sapiens, CEM/C2)?
**A.** The IC50 was 6750 nM.

**Q.** And the “RR (relative resistance) CEM/C2 vs CEM” value (CEM/C2 cells)?
**A.** The value was 1500.

**Q.** And the “sensitivity to camptothecin of cells in S-phase relative to cells in G1 or G2” value (cells in S-phase)?
**A.** The value was 100-1000 times.

**Q.** Which IC50 (1A9 cells; [2]) does the source give for `CC(=O)O[C@H]1C(=O)[C@@]2(C)[C@H]([C@H](OC(=O)c3ccccc3)[C@]3(O)C[C@H](OC(=O)[C@H](O)[C@@H](NC(=O)c4ccccc4)c4ccccc4)C(C)=C1C3(C)C)[C@]1(OC(C)=O)CO[C@@H]1C[C@@H]2O` [Paclitaxel, paclitaxel] here?
**A.** Its IC50 is 5 nM.

**Q.** And the IC50 (1A9-PTX10 cells; Homo sapiens, 1A9/ptx-10)?
**A.** Its IC50 is 213 nM.

**Q.** And the “RR (relative resistance) 1A9-PTX10 vs 1A9” value (1A9-PTX10 cells)?
**A.** Its value is 42.6.

**Q.** And the IC50 [1, 3]?
**A.** Its IC50 is 1420 nM.

**Q.** And the IC50 [1, 4]?
**A.** Its IC50 is 31 nM.

**Q.** And the “RR (relative resistance) NCI-Adr resistant −verapamil vs +verapamil” value [1]?
**A.** Its value is 46.

**Q.** For `N.N.[Cl][Pt][Cl]` [Cisplatin, cisplatin], which IC50 (1A9 cells; 48 hours exposure) is on record?
**A.** Its IC50 is 8400 nM.

**Q.** What about the IC50 (1A9-PTX10 cells) of the same molecule?
**A.** Its IC50 is 13900 nM.

**Q.** And the IC50 [1, 5]?
**A.** Its IC50 is 13200 nM.

**Q.** And the IC50 [1, 6]?
**A.** Its IC50 is 13000 nM.

**Q.** And the IC50 (CCRF/CEM cells)?
**A.** The IC50 was 2600 nM.

**Q.** What about the IC50 (CEM/C2 cells) of the same molecule?
**A.** The IC50 was 2200 nM.

**Q.** And the IC50 (MCF-7 cells; 48 hours)?
**A.** The IC50 was 28700 nM.

**Q.** What about the IC50 (MCF-7/VP cells; [7]) of the same molecule?
**A.** The IC50 was 31200 nM.

**Q.** And the IC50 (A129 cells)?
**A.** Its IC50 is 130 nM.

**Q.** And the IC50 (A129 cp80 cells)?
**A.** Its IC50 is 11600 nM.

**Q.** What does the source list for `COc1cccc2c1C(=O)c1c(O)c3c(c(O)c1C2=O)C[C@@](O)(C(=O)CO)C[C@@H]3O[C@H]1C[C@H](N)[C@H](O)[C@H](C)O1` [Adriamycin, adriamycin]?
**A.** IC50 [1, 3]: 650 nM; IC50 [1, 4]: 75000 nM; relative resistance, NCI-Adr resistant subline without vs with verapamil ([1]; individual experiments): 115 fold; RR (relative resistance) NCI-Adr resistant −verapamil vs +verapamil [1]: 115

**Q.** Which IC50 (1A9 cells; 48 hours exposure) does the source give for `N.NC1CCCCC1.[Cl-].[Cl-].[Pt+2]` [JM118] here?
**A.** Its IC50 is 500 nM.

**Q.** And the IC50 (1A9-PTX10 cells)?
**A.** The IC50 was 1500 nM.

**Q.** What about the “RR (relative resistance) 1A9-PTX10 vs 1A9” value (1A9-PTX10 cells) of the same molecule?
**A.** The value was 3.1.

**Q.** What about the IC50 [1, 5] of the same molecule?
**A.** Its IC50 is 2100 nM.

**Q.** And the “RR (relative resistance) NCI-Adr resistant −verapamil vs +verapamil” value [1]?
**A.** Its value is 1.1.

**Q.** And the IC50 [1, 6]?
**A.** The IC50 was 2300 nM.

**Q.** What about the IC50 (CCRF/CEM cells) of the same molecule?
**A.** The IC50 was 430 nM.

**Q.** What about the IC50 (CEM/C2 cells) of the same molecule?
**A.** Its IC50 is 500 nM.

**Q.** What about the “RR (relative resistance) CEM/C2 vs CEM” value (CEM/C2 cells) of the same molecule?
**A.** The value was 1.18.

**Q.** What about the IC50 (HT29 cells; 48 hours) of the same molecule?
**A.** The IC50 was 4500 nM.

**Q.** And the IC50 (MCF-7 cells; 48 hours)?
**A.** The IC50 was 1200 nM.

**Q.** And the IC50 (MCF-7/VP cells; [7])?
**A.** The IC50 was 1300 nM.

**Q.** And the “RR (relative resistance) MCF7/VP vs MCF7” value (MCF-7/VP cells)?
**A.** The value was 1.1 +/− 0.1.

**Q.** What about the IC50 (A129 cells) of the same molecule?
**A.** The IC50 was 170 nM.

**Q.** What about the IC50 (A129 cp80 cells) of the same molecule?
**A.** Its IC50 is 430 nM.

**Q.** And the “RR (relative resistance) A129 cp80 vs A129” value (A129 cp80 cells; cisplatin resistance mechanism)?
**A.** Its value is 2.6.

**Q.** And the “RR (relative resistance) HT-29/MIT vs HT-29” value (HT29/MIT cells)?
**A.** The value was 1.3 +/− 0.1.

**Q.** What about the IC50 (HT29/MIT cells; 48 hours, SRB) of the same molecule?
**A.** Its IC50 is 6000 nM.

**Q.** For `COc1cc([C@@H]2c3cc4c(cc3[C@@H](O[C@@H]3O[C@@H]5CO[C@@H](C)O[C@H]5[C@H](O)[C@H]3O)[C@H]3COC(=O)[C@H]23)OCO4)cc(OC)c1O` [Etoposide, etoposide], which IC50 (MCF-7 cells; Homo sapiens, MCF7, 48 hours) is on record?
**A.** The IC50 was 7200 nM.

**Q.** And the IC50 (MCF-7/VP cells; Homo sapiens, MCF7-VP)?
**A.** The IC50 was > 100000 nM.

**Q.** And the “RR (relative resistance) MCF7/VP vs MCF7” value (MCF-7/VP cells)?
**A.** Its value is >20.

**Q.** And the “relative resistance in individual experiments, MCF-7/VP vs MCF-7” value (MCF-7/VP cells; range over individual experiments)?
**A.** The value was > 20 fold.

**Q.** Which IC50 (HT29 cells; Homo sapiens, HT-29, 48 hours) does the source give for `O=C1c2c(O)ccc(O)c2C(=O)c2c(NCCNCCO)ccc(NCCNCCO)c21` [Mitoxantrone, mitoxantrone] here?
**A.** The IC50 was 1300 nM.

**Q.** And the IC50 (HT29/MIT cells; Homo sapiens, HT-29, 48 h)?
**A.** The IC50 was 198000 nM.

**Q.** What about the “RR (relative resistance) HT-29/MIT vs HT-29” value (HT29/MIT cells) of the same molecule?
**A.** Its value is 175 +/− 67.

**Q.** With `C/C=C/C[C@@H](C)C(=O)[C@H]1C(=O)N[C@@H](C(C)C)C(=O)N(C)CC(=O)N(C)[C@@H](CC(C)C)C(=O)N[C@@H](C(C)C)C(=O)N(C)[C@@H](CC(C)C)C(=O)N[C@@H](C)C(=O)N[C@H](C)C(=O)N(C)[C@@H](CC(C)C)C(=O)N(C)[C@@H](CC(C)C)C(=O)N(C)[C@@H](C(C)C)C(=O)N1C` [PSC-833] as the molecule, how does the “P-gp inhibitor potency relative to cyclosporine” value (P-gp) read?
**A.** Its value is 10 times.
